From patent US20250268917A1, “PHARMACEUTICAL COMPOSITIONS AND METHODS FOR PREVENTION AND/OR TREATMENT OF INFLAMMATION” (REVEN PHARMACEUTICALS INC., priority 2020, published 2025)

What was measured:
[1] = equivalent to dexamethasone 0.75 mg; cited from earlier work
LPS-GalN challenged mice = assay: LPS-GalN model of fatal cytokine storm and sepsis; RJX, DEX or RJX+DEX 2 hours post LPS-GalN; format: in vivo, BALB/c mice; details: for Censored: alive at 24 h; for Events: deaths within 24 h
[2] = RJX 0.7 ml/kg (n=20), DEX 0.6 mg/kg (n=10), or both (n=20)

SMILES: C[C@]12CCC(=O)C=C1CC[C@@H]1[C@@H]2[C@@H](O)C[C@@]2(C)[C@H]1CC[C@]2(O)C(=O)CO [Hydrocortisone]
- Approximate Equivalent Dose [1]: 20 mg

SMILES: C[C@]12C=CC(=O)C=C1CC[C@@H]1[C@@H]2[C@@H](O)C[C@@]2(C)[C@H]1CC[C@]2(O)C(=O)CO [Prednisolone]
- Approximate Equivalent Dose [1]: 5 mg

SMILES: C[C@@H]1C[C@H]2[C@@H]3CCC4=CC(=O)C=C[C@]4(C)[C@@]3(F)[C@@H](O)C[C@]2(C)[C@@]1(O)C(=O)CO [DEX, dexamethasone]
- Censored (LPS-GalN challenged mice; DEX 0.1 mg/kg i.p. 2 h post LPS-GalN, n=6): 1
- Median survival (LPS-GalN challenged mice; DEX 0.1 mg/kg, n=6): 5.1 h
- Proportion (24-h mortality) (LPS-GalN challenged mice; DEX 0.1 mg/kg, n=6): 83.3%
- Events (LPS-GalN challenged mice; DEX 0.1 mg/kg, n=6): 5
- Censored (LPS-GalN challenged mice; DEX 0.6 mg/kg i.p. 2 h post LPS-GalN, n=6): 3
- Median survival (LPS-GalN challenged mice; DEX 0.6 mg/kg, n=6): 15.0 h
- Proportion (mortality) (LPS-GalN challenged mice; DEX 0.6 mg/kg, n=6): 50.0%
- Events (LPS-GalN challenged mice; DEX 0.6 mg/kg, n=6): 3
- Censored (LPS-GalN challenged mice; DEX 6.0 mg/kg i.p. 2 h post LPS-GalN, n=6): 4
- Proportion (mortality) (LPS-GalN challenged mice; DEX 6.0 mg/kg, n=6): 33.3%
- Events (LPS-GalN challenged mice; DEX 6.0 mg/kg, n=6): 2
- Proportion (mortality) (LPS-GalN challenged mice; [2]): 50.0%
- Censored (LPS-GalN challenged mice; RJX 0.7 ml/kg (n=20), DEX 0.6 mg/kg (n=10), or both (n=20) 2 h post LPS-GalN): 5
- Events (LPS-GalN challenged mice; [2]): 5
- lung histopathological ALI scores, range (LPS-GalN challenged mice; RJX 0.7 ml/kg, DEX 6.0 mg/kg, alone or combined, n=6): 1-3
- ALI score of representative mouse (LPS-GalN challenged mice; single dose at 2 hours post-LPS-GalN, sacrificed at 24 hours, FIG. 20): 2

SMILES: C[C@]12CCC(=O)C=C1CC[C@@H]1[C@@H]2C(=O)C[C@@]2(C)[C@H]1CC[C@]2(O)C(=O)CO [Cortisone]
- Approximate Equivalent Dose [1]: 25 mg

SMILES: C[C@]12C=CC(=O)C=C1CC[C@H]1[C@@H]3C[C@@H](O)[C@](O)(C(=O)CO)[C@@]3(C)C[C@H](O)[C@@]12F [Triamcinolone]
- Approximate Equivalent Dose [1]: 4 mg
